Test results: ChEMBL document CHEMBL1152860, “Synthesis and antiproliferative activity of 3-amino-N-phenyl-1H-indazole-1-carboxamides” (2009)
Active and inactive are the calls of the source. The rule behind the calls is not given here.

Assays:
U-251 = experiment: Growth inhibition of human U251 cells after 48 hrs by SRB assay; assay type: functional; details: U-251, 48 h
SK-MEL-5 = experiment: Growth inhibition of human SK-MEL-5 cells after 48 hrs by SRB assay; assay type: functional; details: SK-MEL-5, 48 h
HOP-92 = experiment: Growth inhibition of human HOP92 cells after 48 hrs by SRB assay; assay type: functional; details: HOP-92, 48 h
M14 = experiment: Growth inhibition of human M14 cells after 48 hrs by SRB assay; assay type: functional; details: M14, 48 h
RPMI-8226 = experiment: Growth inhibition of human RPMI8226 cells after 48 hrs by SRB assay; assay type: functional; details: RPMI-8226, 48 h
SNB-19 = experiment: Growth inhibition of human SNB19 cells after 48 hrs by SRB assay; assay type: functional; details: SNB-19, 48 h
A549 = experiment: Growth inhibition of human A549 cells after 48 hrs by SRB assay; assay type: functional; details: A549, 48 h
CAKI-1 = experiment: Growth inhibition of human Caki1 cells after 48 hrs by SRB assay; assay type: functional; details: CAKI-1, 48 h
SN12C = experiment: Growth inhibition of human SN12C cells after 48 hrs by SRB assay; assay type: functional
NCI-H226 = experiment: Growth inhibition of human NCI-H226 cells after 48 hrs by SRB assay; assay type: functional; details: NCI-H226, 48 h
NCI-H460 = experiment: Growth inhibition of human NCI-H460 cells after 48 hrs by SRB assay; assay type: functional; details: NCI-H460, 48 h
MCF7 = experiment: Growth inhibition of human MCF7 cells after 48 hrs by SRB assay; assay type: functional; details: MCF7, 48 h
COLO 205 = experiment: Growth inhibition of human COLO205 cells after 48 hrs by SRB assay; assay type: functional; details: COLO 205, 48 h
K562 = experiment: Growth inhibition of human K562 cells after 48 hrs by SRB assay; assay type: functional; details: K562, 48 h
SK-MEL-28 = experiment: Growth inhibition of human SK-MEL-28 cells after 48 hrs by SRB assay; assay type: functional; details: SK-MEL-28, 48 h
UACC-62 = experiment: Growth inhibition of human UACC62 cells after 48 hrs by SRB assay; assay type: functional; details: UACC-62, 48 h
786-0 = experiment: Growth inhibition of human 786-0 cells after 48 hrs by SRB assay; assay type: functional; details: 786-0, 48 h
T47D = experiment: Growth inhibition of human T47D cells after 48 hrs by SRB assay; assay type: functional
RXF 393 = experiment: Growth inhibition of human […] cells after 48 hrs by SRB assay; assay type: functional; details: RXF 393, 48 h
KM12 = experiment: Growth inhibition of human KM12 cells after 48 hrs by SRB assay; assay type: functional; details: KM12, 48 h
HCT-15 = experiment: Growth inhibition of human HCT15 cells after 48 hrs by SRB assay; assay type: functional; details: HCT-15, 48 h
PC-3 = experiment: Growth inhibition of human PC3 cells after 48 hrs by SRB assay; assay type: functional; details: PC-3, 48 h
OVCAR-8 = experiment: Growth inhibition of human OVCAR8 cells after 48 hrs by SRB assay; assay type: functional; details: OVCAR-8, 48 h
LOX IMVI = experiment: Growth inhibition of human LOXIMVI cells after 48 hrs by SRB assay; assay type: functional
MDA-MB-231 = experiment: Growth inhibition of human MDA-MB-231 cells after 48 hrs by SRB assay; assay type: functional; details: MDA-MB-231, 48 h
SR [1] = experiment: Cell cycle arrest in human SR cells assessed as accumulation at G0/G1 phase at 0.0153 uM after 24 hrs using propidium iodide staining by flow cytometry; assay type: functional, cell-based
HT-29 = experiment: Growth inhibition of human HT-29 cells after 48 hrs by SRB assay; assay type: functional; details: HT-29, 48 h
MOLT-4 = experiment: Growth inhibition of human MOLT4 cells after 48 hrs by SRB assay; assay type: functional; details: MOLT-4, 48 h
IGROV-1 = experiment: Growth inhibition of human IGROV1 cells after 48 hrs by SRB assay; assay type: functional; details: IGROV-1, 48 h
SF-295 = experiment: Growth inhibition of human SF295 cells after 48 hrs by SRB assay; assay type: functional; details: SF-295, 48 h
NCI/ADR-RES = experiment: Growth inhibition of human NCI/ADR-RES cells after 48 hrs by SRB assay; assay type: functional
DU-145 = experiment: Growth inhibition of human DU145 cells after 48 hrs by SRB assay; assay type: functional; details: DU-145, 48 h
SR [2] = experiment: Growth inhibition of human SR cells after 48 hrs by SRB assay; assay type: functional
HOP-62 = experiment: Growth inhibition of human HOP62 cells after 48 hrs by SRB assay; assay type: functional; details: HOP-62, 48 h
MDA-MB-435 = experiment: Growth inhibition of human MDA-MB-435 cells after 48 hrs by SRB assay; assay type: functional; details: MDA-MB-435, 48 h
OVCAR-5 = experiment: Growth inhibition of human OVCAR5 cells after 48 hrs by SRB assay; assay type: functional; details: OVCAR-5, 48 h
ACHN = experiment: Growth inhibition of human ACHN cells after 48 hrs by SRB assay; assay type: functional
SF-539 = experiment: Growth inhibition of human SF539 cells after 48 hrs by SRB assay; assay type: functional; details: SF-539, 48 h
NCI-H522 = experiment: Growth inhibition of human NCI-H522 cells after 48 hrs by SRB assay; assay type: functional; details: NCI-H522, 48 h
A498 = experiment: Growth inhibition of human A498 cells after 48 hrs by SRB assay; assay type: functional; details: A498, 48 h
Malme-3M = experiment: Growth inhibition of human MALME-3M cells after 48 hrs by SRB assay; assay type: functional
UACC-257 = experiment: Growth inhibition of human UACC257 cells after 48 hrs by SRB assay; assay type: functional; details: UACC-257, 48 h
HCC 2998 = experiment: Growth inhibition of human HCC2998 cells after 48 hrs by SRB assay; assay type: functional; details: HCC 2998, 48 h
NCI-H322M = experiment: Growth inhibition of human NCI-H322M cells after 48 hrs by SRB assay; assay type: functional
NCI-H23 = experiment: Growth inhibition of human NCI-H23 cells after 48 hrs by SRB assay; assay type: functional; details: NCI-H23, 48 h
[3] = read-out: LC50 (the source's name)

SMILES: Nc1nn(C(=O)Nc2ccc(Cc3ccccc3)cc2)c2ccccc12
- GI50 (U-251): 13.9 µM
- GI50 (SK-MEL-5): 2.22 µM
- TGI (SK-MEL-5): 8.64 µM
- CC50 (SK-MEL-5; [3]): 34.3 µM
- GI50 (HOP-92): 14.2 µM
- GI50 (M14): 0.772 µM
- TGI (M14): > 100 µM
- CC50 (M14; [3]): > 100 µM
- GI50 (RPMI-8226): 1.86 µM
- TGI (RPMI-8226): 25.8 µM
- CC50 (RPMI-8226; [3]): 84 µM
- GI50 (SNB-19): 22.8 µM
- GI50 (A549): 12.9 µM
- GI50 (CAKI-1): 21.1 µM
- GI50 (SN12C): 12.9 µM
- GI50 (NCI-H226): 13.5 µM
- GI50 (NCI-H460): 0.408 µM
- TGI (NCI-H460): 13 µM
- CC50 (NCI-H460; [3]): 84.6 µM
- GI50 (MCF7): 0.555 µM
- TGI (MCF7): 8.82 µM
- CC50 (MCF7; [3]): 89.1 µM
- GI50 (COLO 205): 13.4 µM
- GI50 (K562): 1.2 µM
- LC50 (concentration killing 50% of cells) (K562): > 100 µM
- TGI (K562): 33.8 µM
- GI50 (SK-MEL-28): 11.5 µM
- GI50 (UACC-62): 0.353 µM
- TGI (UACC-62): > 100 µM
- CC50 (UACC-62; [3]): > 100 µM
- GI50 (786-0): 3.76 µM
- GI50 (T47D): 1.55 µM
- TGI (T47D): > 100 µM
- CC50 (T47D; [3]): > 100 µM
- GI50 (RXF 393): 22.2 µM
- GI50 (KM12): 2.94 µM
- TGI (KM12): > 100 µM
- CC50 (KM12; [3]): > 100 µM
- GI50 (HCT-15): 1.08 µM
- TGI (HCT-15): > 100 µM
- CC50 (HCT-15; [3]): > 100 µM
- GI50 (PC-3): 13.5 µM
- GI50 (OVCAR-8): 21.9 µM
- GI50 (LOX IMVI): 0.477 µM
- LC50 (concentration killing 50% of cells) (LOX IMVI): 61.5 µM
- TGI (LOX IMVI): 16.1 µM
- GI50 (MDA-MB-231): 0.847 µM
- TGI (MDA-MB-231): 43.9 µM
- CC50 (MDA-MB-231; [3]): > 100 µM
- Activity (SR [1]): Active
- GI50 (HT-29): 2.39 µM
- TGI (HT-29): 17.6 µM
- CC50 (HT-29; [3]): 56.3 µM
- GI50 (MOLT-4): 0.636 µM
- TGI (MOLT-4): 20.4 µM
- CC50 (MOLT-4; [3]): > 100 µM
- GI50 (IGROV-1): 6.98 µM
- GI50 (SF-295): 0.53 µM
- TGI (SF-295): > 100 µM
- CC50 (SF-295; [3]): > 100 µM
- GI50 (NCI/ADR-RES): 7.87 µM
- GI50 (DU-145): 1.02 µM
- TGI (DU-145): 28.3 µM
- CC50 (DU-145; [3]): > 100 µM
- GI50 (SR [2]): 0.0153 µM
- TGI (SR [2]): 82.2 µM
- CC50 (SR [2]; [3]): 34.8 µM
- GI50 (HOP-62): 13.7 µM
- GI50 (MDA-MB-435): 2.82 µM
- TGI (MDA-MB-435): > 100 µM
- CC50 (MDA-MB-435; [3]): > 100 µM
- GI50 (OVCAR-5): 31.3 µM
- GI50 (ACHN): 1.69 µM
- TGI (ACHN): 33.4 µM
- CC50 (ACHN; [3]): > 100 µM
- GI50 (SF-539): 0.495 µM
- TGI (SF-539): 5.36 µM
- CC50 (SF-539; [3]): > 100 µM
- GI50 (NCI-H522): 2.9 µM
- TGI (NCI-H522): > 100 µM
- CC50 (NCI-H522; [3]): > 100 µM
- GI50 (A498): 16.7 µM
- GI50 (Malme-3M): 19.2 µM
- GI50 (UACC-257): 10 µM
- GI50 (HCC 2998): 4.27 µM
- GI50 (NCI-H322M): 27.8 µM
- GI50 (NCI-H23): 16.8 µM
